25 compounds from patent US20250171451A1, “NOVEL HETEROCYCLIC COMPOUND AND PHARMACEUTICAL COMPOSITION COMPRISING SAME” (Samjin Pharmaceutical Co., Ltd., priority 2022, published 2025) can be followed below.

Experiment [1] addresses T1, recombinant GST-TEAD1 proteins (209 to 426 a.a.) (Homo sapiens, UniProt P28347).
T1 construct: recombinant GST-TEAD1 proteins (209 to 426 a.a.)
As to the kind of experiment: Evaluation of palmitoylation of TEAD protein. Format: biochemical. To be noted: 5 μM compound, 15 minutes preincubation, 3 μM alkyne palmitoyl-CoA 30 minutes, pH 6.4, vs DMSO control. The procedure:
Each compound corresponding to a concentration of 5 μM was added to recombinant GST-TEAD1 proteins (209 to 426 a.a.) and cultured for 15 minutes. For an autopalmitoylation reaction of proteins after culturing, 3 μM alkyne palmitoyl-CoA (Cayman chemical) and 50 mM MES buffer (pH 6.4) were added and cultured for 30 minutes, after which 1% of sodium dodecyl sulfate (SDS) was added to stop the reaction. After that, biotinylation was performed through a CLICK (Click chemistry tools) reaction, and then a protein solution was concentrated to prepare a sample.
Analysis of the sample was performed using SDS-PAGE and streptavidin HRP (Thermo scientific). The resulting values were quantified using an Image J (NIH). For the intensity of the band obtained from Streptavidin blot, a palmitoylation inhibitory activity was analyzed based on the control group (DMSO). The normalization of each sample was performed using an anti-GST (91G1) (cell signaling) antibody.

In experiment [2] the test system is TEAD response element (TRE) luciferase reporter in MCF-7 cell lines. Briefly: TEAD response element (TRE) reporter assay. As to conditions: Homo sapiens, MCF7; 0.2 μM compound, 24 hours, MCF-7 TEAD reporter cells, relative to vehicle (1% DMSO). Format: cell-based. As for the experimental part:
MCF-7 cell lines injected with TEAD reporter genes expressing firefly luciferase upon activation of TEAD response element (TRE) were obtained from BPS bioscience (#60618). The TEAD reporter genes were injected to stable expression in the MCF-7 cell lines.
TEAD reporter genes expressing firefly luciferase upon activation of TEAD response element (TRE) were injected with TEAD reporter genes to ensure stable expression of the TEAD reporter genes. Here, the TEAD reporter genes expresses firefly luciferase upon activation of TEAD response element (TRE). The cells were cultured in a cell-only culture medium (BPS bioscience) to which 10 μg/mL insulin (Sigma) was added at 37° C. and 5% CO2.
In 24 hours after dispensing said cells into a 96-well plate, each of the compounds of the examples or a vehicle solvent (final 1% DMSO) was treated by being diluted with a serum-free culture medium so that the final concentration became 0.2 μM. In 24 hours after said treatment, a luciferase assay working solution (ONE-Step Luciferase assay reagent; BPS bioscience) containing a luciferase substrate was treated in each well at 100 μL, and then left in a shaker for 15 minutes to be well mixed. Then, a degree of luminescence generated by luciferase expressed according to TEAD activation was measured by a microplate reader (TECAN). A relative activity of luciferase […], and the results are shown in table 8 below.
For orientation: A reporter such as luciferase makes a cellular process visible.

T1 sequence (P28347 209-426): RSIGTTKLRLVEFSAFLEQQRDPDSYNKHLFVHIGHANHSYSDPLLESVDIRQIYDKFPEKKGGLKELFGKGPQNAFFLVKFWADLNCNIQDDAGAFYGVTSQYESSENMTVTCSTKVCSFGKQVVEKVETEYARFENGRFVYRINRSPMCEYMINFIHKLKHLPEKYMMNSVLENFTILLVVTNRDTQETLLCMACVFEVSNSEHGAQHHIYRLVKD

The inhibition is the drop in the measured response relative to a control, in per cent. With `C=CC(=O)Nc1ccc2c(c1)c(C)nn2Cc1ccc(C(F)(F)F)cc1` [Compound 33, N-(3-methyl-1-(4-(trifluoromethyl)benzyl)-1H-indazol-5-yl)acrylamide], the inhibition at 5 µM in experiment [1] is 40 to 80%. Further, the inhibition at 0.2 µM in experiment [2] was over 50%.

With `C=CC(=O)Nc1ccc2cnn(-c3ccc(C(F)(F)F)cc3)c2c1` [Compound 34, N-(1-(4-(trifluoromethyl)phenyl)-1H-indazol-6-yl)acrylamide], the inhibition at 5 µM in experiment [1] was in the range of 40 to 80%. This compound also yielded an inhibition at 0.2 µM in experiment [2] of 30 to 50%.

As for `C=CC(=O)Nc1cnc2c(cnn2-c2ccc(C(F)(F)F)cc2)c1` [Compound 35, N-(1-(4-(trifluoromethyl)phenyl)-1H-pyrazolo[3,4-b]pyridin-5-yl)acrylamide], the inhibition at 5 µM in experiment [1] lay in the range of 40 to 80%. The compound also displayed an inhibition at 0.2 µM in experiment [2] of over 50%.

On to `C=CC(=O)Nc1cnc2c(ccn2-c2ccc(C(F)(F)F)cc2)c1` [Compound 36, N-(1-(4-(trifluoromethyl)phenyl)-1H-pyrrolo[2,3-b]pyridin-5-yl)acrylamide], for which the inhibition at 5 µM in experiment [1] was over 80%. Moreover, the inhibition at 0.2 µM in experiment [2] was over 50%.

For the compound `C=CC(=O)Nc1cnc2c(c1)c(C)cn2-c1ccc(C2CCCCC2)cc1` [Compound 37, N-(1-(4-cyclohexylphenyl)-3-methyl-1H-pyrrolo[2,3-b]pyridin-5-yl)acrylamide], the inhibition at 5 µM in experiment [1] is over 80%. In addition, the inhibition at 0.2 µM in experiment [2] is under 30%.

Regarding `C=CC(=O)Nc1ccc2c(Br)nn(Cc3ccc(C(F)(F)F)cc3)c2c1` [Compound 38, N-(3-bromo-1-(4-(trifluoromethyl)benzyl)-1H-indazol-6-yl)acrylamide], the inhibition at 5 µM in experiment [1] was over 80%. For the same compound, the inhibition at 0.2 µM in experiment [2] is 30 to 50%.

As to `C=CC(=O)Nc1ccc2c(c1)CCN2c1ccc(C(F)(F)F)cc1` [Compound 39, N-(1-(4-(trifluoromethyl)phenyl)indolin-5-yl)acrylamide], in experiment [1], the inhibition at 5 µM was in the range of 40 to 80%. The inhibition at 0.2 µM in experiment [2] is 30 to 50%.

As to `C=CC(=O)Nc1cnc2c(n1)c(C)cn2-c1ccc(C(F)(F)F)cc1` [Compound 41, N-(7-methyl-5-(4-(trifluoromethyl)phenyl)-5H-pyrrolo[2,3-b]pyrazin-2-yl)acrylamide], the inhibition at 5 µM in experiment [1] lay within 40 to 80%. Also, the inhibition at 0.2 µM in experiment [2] was over 50%.

For `C=CC(=O)Nc1cnc2c(c1)c(C)cn2Cc1ccc(C(C)(C)C)cc1` [Compound 44, N-(1-(4-(tert-butyl)benzyl)-3-methyl-1H-pyrrolo[2,3-b]pyridin-5-yl)acrylamide], in experiment [1], the inhibition at 5 µM lay in the range of 40 to 80%. Moreover, the inhibition at 0.2 µM in experiment [2] is under 30%.

Turning to `C=CC(=O)Nc1cnc2c(c1)c(C)cn2Cc1ccc(OC(F)(F)F)cc1` [Compound 45, N-(3-methyl-1-(4-(trifluoromethoxy)benzyl)-1H-pyrrolo[2,3-b]pyridin-5-yl)acrylamide], in experiment [1], the inhibition at 5 µM lay within 40 to 80%. In experiment [2], this compound had an inhibition at 0.2 µM of over 50%.

For the compound `C=CC(=O)Nc1cnc2c(ccn2-c2ccc(C(F)(F)F)cc2)n1` [Compound 46, N-(5-(4-(trifluoromethyl)phenyl)-5H-pyrrolo[2,3-b]pyrazin-2-yl)acrylamide], the inhibition at 5 µM in experiment [1] lay within 40 to 80%. The compound further came in with an inhibition at 0.2 µM in experiment [2] of under 30%.

With `C=CC(=O)Nc1cnc2c(c1)c(C)cn2-c1ccc(C(C)C)cc1` [Compound 47, N-(1-(4-isopropylphenyl)-3-methyl-1H-pyrrolo[2,3-b]pyridin-5-yl)acrylamide], the inhibition at 5 µM in experiment [1] was over 80%. This compound also returned an inhibition at 0.2 µM in experiment [2] of 30 to 50%.

For the compound `C=CC(=O)Nc1cnc2c(c1)c(C)nn2CCC(C)C` [Compound 48, N-(1-isopentyl-3-methyl-1H-pyrazolo[3,4-b]pyridin-5-yl)acrylamide], the inhibition at 5 µM in experiment [1] fell in the range of 40 to 80%. This compound came in with an inhibition at 0.2 µM in experiment [2] of over 50%.

For `C=CC(=O)Nc1cnc2c(c1)c(C)nn2Cc1ccc(OC(F)(F)F)cc1` [Compound 49, N-(3-methyl-1-(4-(trifluoromethoxy)benzyl)-1H-pyrazolo[3,4-b]pyridin-5-yl)acrylamide], the inhibition at 5 µM in experiment [1] was 40 to 80%. In experiment [2], this compound registered an inhibition at 0.2 µM of under 30%.

With `C=CC(=O)Nc1cnc2c(c1)c(C)nn2-c1ccc(C(C)C)cc1` [Compound 51, N-(1-(4-isopropylphenyl)-3-methyl-1H-pyrazolo[3,4-b]pyridin-5-yl)acrylamide], in experiment [1], the inhibition at 5 µM is over 80%. In addition, in experiment [2], the inhibition at 0.2 µM was under 30%.

In the case of `C=CC(=O)Nc1cnc2c(c1)c(C)nn2-c1cccc(C(F)(F)F)c1` [Compound 52, N-(3-methyl-1-(3-(trifluoromethyl)phenyl)-1H-pyrazolo[3,4-b]pyridin-5-yl)acrylamide], the inhibition at 5 µM in experiment [1] was in the range of 40 to 80%. The compound also displayed an inhibition at 0.2 µM in experiment [2] of over 50%.

With `C=CC(=O)Nc1cnc2c(c1)c(C)cn2Cc1ccc(C(F)(F)F)c(OC)c1` [Compound 53, N-(1-(3-methoxy-4-(trifluoromethyl)benzyl)-3-methyl-1H-pyrrolo[2,3-b]pyridin-5-yl)acrylamide], the inhibition at 5 µM in experiment [1] is under 40%. The inhibition at 0.2 µM in experiment [2] is over 50%.

With `C=CC(=O)Nc1cnc2c(c1)c(C)cn2Cc1cccc(C(F)(F)F)c1` [Compound 55, N-(3-methyl-1-(3-(trifluoromethyl)benzyl)-1H-pyrrolo[2,3-b]pyridin-5-yl)acrylamide], the inhibition at 5 µM in experiment [1] was in the range of 40 to 80%. The compound further came in with an inhibition at 0.2 µM in experiment [2] of over 50%.

For the compound `C=CC(=O)Nc1cnc2c(c1)c(C)nn2Cc1cccc(C(F)(F)F)c1` [Compound 56, N-(3-methyl-1-(3-(trifluoromethyl)benzyl)-1H-pyrazolo[3,4-b]pyridin-5-yl)acrylamide], the inhibition at 5 µM in experiment [1] was under 40%. Also, the inhibition at 0.2 µM in experiment [2] is over 50%.

Take `C=CC(=O)Nc1cnc2c(c1)c(C)cn2C1CCCCC1` [Compound 57, N-(1-cyclohexyl-3-methyl-1H-pyrrolo[2,3-b]pyridin-5-yl)acrylamide]: in experiment [1], the inhibition at 5 µM was in the range of 40 to 80%. Moreover, the inhibition at 0.2 µM in experiment [2] is under 30%.

Consider `C=CC(=O)Nc1cnc2c(c1)c(C)cn2-c1ccc(OC(F)(F)F)cc1` [Compound 58, N-(3-methyl-1-(4-(trifluoromethoxy)phenyl)-1H-pyrrolo[2,3-b]pyridin-5-yl)acrylamide], for which, in experiment [1], the inhibition at 5 µM was over 80%. Also, in experiment [2], the inhibition at 0.2 µM is under 30%.

Turning to `C=CC(=O)Nc1cnc2c(c1)c(C)cn2-c1ccc(C(F)(F)F)c(OC)c1` [Compound 59, N-(1-(3-methoxy-4-(trifluoromethyl)phenyl)-3-methyl-1H-pyrrolo[2,3-b]pyridin-5-yl)acrylamide], in experiment [1], the inhibition at 5 µM is over 80%. Moreover, the inhibition at 0.2 µM in experiment [2] lay in the range of 30 to 50%.

For `C=CC(=O)Nc1cnc2c(c1)c(C)nn2Cc1ccc(C(C)(C)C)cc1` [Compound 60, N-(1-(4-(tert-butyl)benzyl)-3-methyl-1H-pyrazolo[3,4-b]pyridin-5-yl)acrylamide], the inhibition at 5 µM in experiment [1] lay within 40 to 80%. The compound further showed an inhibition at 0.2 µM in experiment [2] of under 30%.

With `C=CC(=O)Nc1cnc2c(c1)c(C)nn2Cc1ccc(C(F)(F)F)c(OC)c1` [Compound 61, N-(1-(3-methoxy-4-(trifluoromethyl)benzyl)-3-methyl-1H-pyrazolo[3,4-b]pyridin-5-yl)acrylamide], the inhibition at 5 µM in experiment [1] was under 40%. The inhibition at 0.2 µM in experiment [2] is over 50%.

Regarding `C=CC(=O)Nc1cnc2c(c1)c(C)nn2Cc1ccc(C(F)(F)F)s1` [Compound 62, N-(3-methyl-1-((5-(trifluoromethyl)thiophen-2-yl)methyl)-1H-pyrazolo[3,4-b]pyridin-5-yl)acrylamide], the inhibition at 5 µM in experiment [1] lay within 40 to 80%. Further, the inhibition at 0.2 µM in experiment [2] was in the range of 30 to 50%.
